Assay results taken from patent US20090239839A1, “RECEPTOR ANTAGONIST” (TAKEDA PHARMACEUTICAL COMPANY LIMITED, priority 2003, published 2009).
Counter-ions that a name gives are not always drawn.

Experiments:
[1] = target: T1, rat-type OT7T022 (Rattus norvegicus, UniProt Q9EP86); experiment: Binding inhibiting activity using rat-type OT7T022-expressing CHO cell membrane fraction; conditions: iodine-labeled Y-RFRP-3 100 pM, membrane fraction 0.75 μg/well
T1 construct: expressed in transfected cells; host or cells: CHO cells (membrane fraction)
Description: Assessment of Binding Inhibiting Activity of Test Compound Using Rat-Type OT7T022-Expressing CHO Cell
A flask in which a rat-type OT7T022-expressing CHO cell had been cultured was washed with 5 mM EDTA/PBS, cells were peeled with 5 mM EDTA/PBS, and cells were recovered by centrifugation, suspended in 25 mL of a buffer for preparing a membrane fraction (50 mM Tris-HCl, pH 7.5, 5 mM EDTA, 0.5 mM PMSF (manufactured by Wako Pure Chemical Industries, Ltd.), […] (manufactured by Peptide Laboratory), 0.1 μg/mL pepstatin A (manufactured by Peptide Laboratory), 4 μg/mL E-64 (manufactured by Peptide Laboratory)), and homogenized on an ice using Polytron (12,000 rpm, 15 seconds×3 times). This was centrifuged in a high speed cooling centrifuge at 4° C. and 1,000 g for 10 minutes, and the supernatant was recovered. 25 mL of a buffer for preparing a membrane fraction was added to precipitates, and the supernatant was recovered by the same procedure. These supernatants were combined, subjected to a cell strainer, dispensed into tubes for a supercentrifuge, and centrifuged at 4° C. and 100,000 g for 1 hour. The pellet was suspended in a small amount of a buffer for preparing a membrane fraction, this was suspended using a Teflon (registered trade mark) homogenizer, a protein amount was measured using a part, and the remaining was dispensed, and stored at −80° C.
Using an assay buffer (50 mM Tris-HCl, pH 7.5, 5 mM EDTA, 0.5 mM PMSF, 20 μg/mL leupeptin, 0.1 μg/mL pepstatin A, 4 μg/mL E-64, 0.1% bovine serum albumin, 10 mM MgCl2), a membrane fraction of a rat-type OT7T022-expressing CHO cell was diluted to the final concentration of 0.75 μg/well, and iodine-labeled Y-RFRP-3 was diluted to the final concentration of 100 pM. Regarding a sample compound, a 10^−2M or 10^−3M stock solution was diluted with an assay buffer so that the final concentration became 10^−5M, 10^−6M, 10^−7M, 10^−8M, 10^−9M, 10^−10M or 10^−11M. For non-specific binding, hRFRP-3-8 having the final concentration of 10^−5M was prepared. Using a polypropylene 96-well plate, a prepared sample solution, a non-specific binding solution, and 50 μl of an assay buffer for total binding were dispensed, 25 μl of an iodine-labeled form diluent was added, the mixture was stirred, 25 μl of a rat-type OT7T022-expressing CHO cell membrane fraction solution was dispensed, and this was stirred, and incubated at room temperature for 1.5 hours. This was transferred to a unifilter (Perkin Elmer) pre-wetted with a washing buffer (50 mM Tris-HCl, pH 7.5) using a harvester for a 96-well plate (Packard), and this was washed with a washing buffer six times, and sufficiently dried. 50 μl of Microscinti O (Packard) was dispensed, radioactivity was measured with Top Count (Packard), and data were analyzed in a triplicate manner. Binding inhibiting activity (IC50 value) of a test compound for rat-type OT7T022 is shown in [Table 3].

[2] = target: T2, human-type OT7T022 (Homo sapiens, UniProt Q9GZQ6); experiment: Binding inhibiting activity using human-type OT7T022-expressing CHO cell; conditions: 125I-labeled Y-RFRP-3 100 pM, membrane fraction, room temperature 1.5 hours; read-out: IC50 value (binding inhibiting rate)
T2 construct: expressed in transfected cells; host or cells: CHO cells (membrane fraction)
Description: Assessment of Binding Inhibiting Activity of Test Compound Using Human-Type OT7T022-Expressing CHO Cell
Twenty μm of a peptide (Y-RFRP-3) (sequence: Tyr-Val-Pro-Asn-Leu-Pro-Gln-Arg-Phe-amide) (0.1 mM) in which a Tyr residue had been added to a N-terminus of hRFRP-3-8 (sequence: Val-Pro-Asn-Leu-Pro-Gln-Arg-Phe-amide) having binding inhibiting activity equivalent to that of endogenous human-type RFRP-3 (hRFRP-3-28) for human-type OT7T022-expressing CHO cell and 10 μl of distilled water were mixed, 20 μl of a lactoperoxidase solution (Sigma, prepared using 0.1 M HEPES-NaOH, pH 7.0 in 10 μg/mL), 10 μl of Iodine-125 (Amersham, IMS-30, 74 MBq), and 20 μl of 0.005% hydrogen peroxide (Wako Pure Chemical Industries, Ltd.) were successively mixed therein, the mixture was allowed to stand at room temperature for 10 minutes, 600 μl of 0.1% TFA-water was added, this was separated by reverse phase HPLC, a peak of the labeled form was collected, an equivalent amount of a buffer for a binding test (50 mM TrisHCl (pH 7.5), 0.1% BSA, 5 mM EDTA, 0.5 mM PMSF, 20 μg/mL leupeptin, 0.1 μg/mL pepstatin A, […]) was added, and this was immediately stored on ice. A part thereof was 1/100 diluted, radioactivity was measured with a γ-counter, and the remaining authentic product was distributed, which was stored at −30° C.
To a 96-well microplate were added 1 μg of a membrane fraction, a compound and Y-RFRP-3 labeled with ^125I, which had been diluted with a reaction buffer (50 mM Tris-HCl, 5 mM EDTA, 0.1% BSA, 0.5 mM PMSF, 20 μg/ml leupeptin, 0.1 μg/ml pepstatin A, 4 μg/ml E-64, 10 mM MgCl2, pH 7.5), to 100 pM to react them at room temperature for 1.5 hours. For measuring non-specific binding, non-labeled Y-RFRP-3 was further added to […]. Then, a membrane fraction was transferred to a unifilter GF/C (Perkin Elmer) by filtering the reaction mixture using a cell harvester (Perkin Elmer), and this was washed with a cooled 50 mM Tris buffer (pH 7.5) five times. The filter was dried, Microsinti (Packard) was added to the filter, and radioactivity was measured with Topcount (Packard).
A binding inhibiting rate (IC50 value) of a test compound is shown in [Table 1].

[3] = tested on: RFRP-1-administered rats; experiment: Inhibitory activity of increase in blood glucose and blood glucagon concentration in RFRP-1-administered rats; type: in vivo, rat
[4] = tested on: ICR mouse; experiment: Analgesic activity in mouse, SP-it test method; type: in vivo; conditions: for Chewing time: counted for 1 minute
Description: Analgesic Activity in Mouse
Analgesic activity of an RFRP receptor antagonist on provisional pain caused by intrathecal injection (it administration) of substance P (SP) was investigated. In a test, one group (10 animals) of an ICR mouse (♂), 5 week old, was used. A skin of a back of a mouse was excised under ether anesthesia and, after 3 hours or longer recovering time, substance P (SP) was dissolved in a physiological saline, and this was administered by intrathecal injection (between L5-L6) at 10 ng/5 μL/mouse. A physiological saline and the compound of Example 50 were administered by intrathecal injection as a mixed solution with substance P (SP) at a dose of 1, 3 or 10 μg/mouse. From immediately after administration, the number of alternate chewing at a lower abdomen by a mouse was counted for 1 minute, and the time was used as an index for a provisional pain reaction due to substance P (SP).

T1 sequence (Q9EP86 whole entry): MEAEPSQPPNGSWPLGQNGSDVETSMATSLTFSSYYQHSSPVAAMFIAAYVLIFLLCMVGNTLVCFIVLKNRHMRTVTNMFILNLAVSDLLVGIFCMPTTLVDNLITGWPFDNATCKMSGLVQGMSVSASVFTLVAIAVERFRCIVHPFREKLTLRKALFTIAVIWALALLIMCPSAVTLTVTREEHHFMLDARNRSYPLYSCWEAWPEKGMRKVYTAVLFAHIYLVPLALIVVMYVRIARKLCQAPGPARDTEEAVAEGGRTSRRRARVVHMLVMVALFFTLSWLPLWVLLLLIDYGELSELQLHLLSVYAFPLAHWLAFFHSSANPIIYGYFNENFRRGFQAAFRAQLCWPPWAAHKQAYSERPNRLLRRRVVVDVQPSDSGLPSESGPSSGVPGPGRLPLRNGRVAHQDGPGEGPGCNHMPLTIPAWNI
T2 sequence (Q9GZQ6 whole entry): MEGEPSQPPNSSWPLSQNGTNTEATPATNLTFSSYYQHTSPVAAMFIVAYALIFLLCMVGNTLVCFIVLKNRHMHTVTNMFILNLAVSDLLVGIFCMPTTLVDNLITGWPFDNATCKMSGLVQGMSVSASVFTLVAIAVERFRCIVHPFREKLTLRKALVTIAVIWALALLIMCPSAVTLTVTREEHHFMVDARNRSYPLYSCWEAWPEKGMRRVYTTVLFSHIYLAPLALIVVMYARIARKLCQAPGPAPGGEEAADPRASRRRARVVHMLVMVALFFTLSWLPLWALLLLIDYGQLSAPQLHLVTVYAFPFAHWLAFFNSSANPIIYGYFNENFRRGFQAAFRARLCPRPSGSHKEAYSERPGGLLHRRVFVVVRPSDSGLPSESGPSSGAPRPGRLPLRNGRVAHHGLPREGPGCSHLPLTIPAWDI

Compound | IC50 [1] [nM] | IC50 [2] [nM] | other results
CCCCCNCCCOc1cccc([C@H]2O[C@H](CC(=O)NCc3ccccc3F)C(=O)N(CC(C)(C)C)c3ccc(Cl)cc32)c1OC (relative stereo) [Example 4, 2-{3,5-trans-7-Chloro-1-(2,2-dimethylpropyl)-5-[2-methoxy-3-(3-(pentylamino)propoxy)phenyl]-2-oxo-1,2,3,5-tetrahydro-4,1-benzoxazepin-3-yl}-N-(2-fluorobenzyl)acetamide hydrochloride] | < 1000 | < 1000 | –
COc1c(OCCCNCCCc2ccccc2Cl)cccc1[C@H]1O[C@H](CC(=O)NCc2ccccc2F)C(=O)N(CC(C)(C)C)c2ccc(Cl)cc21 (relative stereo) [Example 14, trans-2-{7-Chloro-5-[3-(3-{[3-(2-chlorophenyl)propyl]amino}propoxy)-2-methoxyphenyl]-1-(2,2-dimethylpropyl)-2-oxo-1,2,3,5-tetrahydro-4,1-benzoxazepin-3-yl}-N-(2-fluorobenzyl)acetamide hydrochloride] | < 1000 | < 1000 | –
COc1c(OCCCNC/C=C/c2ccccc2)cccc1[C@H]1O[C@H](CC(=O)NCc2ccccc2F)C(=O)N(CC(C)(C)C)c2ccc(Cl)cc21 (relative stereo) [Example 18, trans-2-[7-Chloro-1-(2,2-dimethylpropyl)-5-[2-methoxy-3-(3-{[(2E)-3-phenyl-2-propenyl]amino}propoxy)phenyl]-2-oxo-1,2,3,5-tetrahydro-4,1-benzoxazepin-3-yl]-N-(2-fluorobenzyl)acetamide hydrochloride] | < 1000 | < 1000 | –

Second part, led by results:

IC50 [1] [nM] | IC50 [2] [nM] | Compound | other results
< 1000 | < 1000 | CCCNC(=O)C[C@H]1O[C@H](c2cccc(OCCCNCCCc3ccccc3)c2OC)c2cc(Cl)ccc2N(CC(C)(C)C)C1=O (relative stereo) [Example 46, trans-2-[7-Chloro-1-(2,2-dimethylpropyl)-5-(2-methoxy-3-{3-[(3-phenylpropyl)amino]propoxy}phenyl)-2-oxo-1,2,3,5-tetrahydro-4,1-benzoxazepin-3-yl]-N-propylacetamide hydrochloride] | –
< 1000 | < 1000 | COc1c(OCCCNCCCc2ccccc2)cccc1[C@H]1O[C@H](CC(=O)N2CCNCC2)C(=O)N(CC(C)(C)C)c2ccc(Cl)cc21.Cl.Cl (relative stereo) [Example 50, trans-7-Chloro-1-(2,2-dimethylpropyl)-5-(2-methoxy-3-{3-[(3-phenylpropyl)amino]propoxy}phenyl)-3-[2-oxo-2-(1-piperazinyl)ethyl]-1,5-dihydro-4,1-benzoxazepine-2(3H)-one dihydrochloride] | inhibition of activity of increasing blood glucose concentration due to RFRP-1 ([3]; 5 mg/kg intravenous): inhibited significantly (p<0.01, n=4); inhibition of activity of increasing blood glucagon concentration due to RFRP-1 ([3]; 5 mg/kg intravenous, 2 minutes after administration of RFRP-1 (p<0.05)): significantly inhibited; inhibition of activity of increasing blood glucagon concentration due to RFRP-1 ([3]; 5 mg/kg intravenous, 5 minutes after administration of RFRP-1 (p<0.001)): significantly inhibited; inhibition of increase in blood glucagon concentration due to RFRP-1 ([3]; 0.2, 1 or 5 mg/kg intravenous 5 minutes before RFRP-1): inhibits increase in a blood glucagon concentration due to RFRP-1 in a dose dependent manner; inhibition of increase in blood glucose concentration due to RFRP-1 ([3]; 0.2, 1 or 5 mg/kg intravenous 5 minutes before RFRP-1, vs control group): inhibits increase in a blood glucose concentration due to RFRP-1 in a dose dependent manner; analgesic activity (pain reaction due to substance P) ([4]; 1, 3 or 10 μg/mouse intrathecal): a pain reaction due to substance P (SP) is inhibited in a dose dependent manner; Chewing time ([4]; dose 1 μg/mouse intrathecal with substance P 10 ng/mouse): 71.8 ± 5.1; Chewing time ([4]; dose 3 μg/mouse intrathecal with substance P 10 ng/mouse): 18.6 ± 4.1; Chewing time ([4]; dose 10 μg/mouse intrathecal with substance P 10 ng/mouse): 0.0 ± 0.0; decrease in the chewing time ([4]; dose of 3 and 10 μg/mouse intrathecal): significant (p<0.01) decrease in the chewing time
< 1000 | < 1000 | COc1c(OCCCNCCCc2ccccc2)cccc1[C@H]1O[C@H](CC(=O)N2CCC(O)CC2)C(=O)N(CC(C)(C)C)c2ccc(Cl)cc21 (relative stereo) [Example 85, trans-7-Chloro-1-(2,2-dimethylpropyl)-3-[2-(4-hydroxypiperidin-1-yl)-2-oxoethyl]-5-(2-methoxy-3-{3-[(3-phenylpropyl)amino]propoxy}phenyl)-1,5-dihydro-4,1-benzoxazepine-2(3H)-one hydrochloride] | –
< 1000 | < 1000 | COc1c(OCCCNCCCc2ccccc2)cccc1[C@H]1O[C@H](CC(=O)N2CCNC(C(=O)O)C2)C(=O)N(CC(C)(C)C)c2ccc(Cl)cc21 (relative stereo) [Example 86, 4-{[3,5-trans-7-Chloro-1-(2,2-dimethylpropyl)-5-(2-methoxy-3-{3-[(3-phenylpropyl)amino]propoxy}phenyl)-2-oxo-1,2,3,5-tetrahydro-4,1-benzoxazepin-3-yl]acetyl}piperazine-2-carboxylic acid dihydrochloride] | –
